# Results: patent US10525032B2, “Antimicrobial compositions comprising mupirocin and neomycin” (University of Rochester, priority 2015, dated 2020)
# Like-named read-outs stand apart in the source and are kept apart here.
# How the values were obtained:
# strain BAA-1708 = experiment: MIC testing; type: cell-based; conditions: Staphylococcus aureus, BAA1708; BAA-1708 (mupA), data not shown
# Method: (§1) Antimicrobial Susceptibility Testing. Minimum inhibitory concentration (MIC) was tested in accordance with the Clinical and Laboratory Standards Institute (CLSI) guidelines. Briefly, 1×10^5 CFU of the indicated S. aureus strain was added to individual wells of a microtiter plate containing 88 μL of MHB media and two-fold increasing concentrations of mupirocin or test agent (0-128 μg ml^−1). Plates were incubated for 16 hr at 37° C. and wells were visually inspected for growth. The lowest concentration of mupirocin or test agent that inhibited S. aureus growth was considered to be the minimum inhibitory concentration. Fractional inhibitory concentration index (FIC) testing was performed to measure interactions between mupirocin and neomycin, as previously described. See Odds F C. 2003. Synergy, antagonism, and what the chequerboard puts between them. The Journal of antimicrobial chemotherapy 52:1. Briefly, in checkerboard format each row of the plate contained increasing concentrations of mupirocin (2-fold increments; 0-0.5 μg/mL), whereas each column contained increasing concentrations of neomycin (2-fold increments; 0-32 μg/mL). […] The FIC was determined using the following formula: (MIC of Drug A in Combination/MIC of Drug A Alone)+(MIC of Drug B in Combination/MIC of Drug B Alone)=FIC. […]
# S. aureus strain UAMS-1 [1] = experiment: Minimum inhibitory concentration (MIC) testing, CLSI microtiter, with or without mupirocin; type: cell-based, Staphylococcus aureus; conditions: for MIC: Staphylococcus aureus
# Method: Screen of Selleck Library. Members of the Selleck Library of Food and Drug […] approved drugs (Selleck Chemicals, Houston Tex., L1300) were screened for agents that potentiate the antimicrobial activity of mupirocin toward S. aureus strain UAMS-1. To do so, 1×10^5 colony forming units of UAMS-1 were added to individual wells of a 96-well microtiter plate, mixed with 0.03 μg/mL mupirocin (0.5× minimum inhibitory concentration) and 50 μM of test agent in Mueller Hinton broth (MHB; 100 μL total well volume). Microtiter plates were incubated at 37° C. for 16 hr, and individual wells were inspected for growth. Wells lacking growth were considered to represent agents that either potentiated the antimicrobial properties of mupirocin or mupirocin-independent antimicrobial microbial properties.
# (§2) Antimicrobial Susceptibility Testing. Minimum inhibitory concentration (MIC) was tested in accordance with the Clinical and Laboratory Standards Institute (CLSI) guidelines. Briefly, 1×10^5 CFU of the indicated S. aureus strain was added to individual wells of a microtiter plate containing 88 μL of MHB media and two-fold increasing concentrations of mupirocin or test agent (0-128 μg ml^−1). Plates were incubated for 16 hr at 37° C. and wells were visually inspected for growth. The lowest concentration of mupirocin or test agent that inhibited S. aureus growth was considered to be the minimum inhibitory concentration. Fractional inhibitory concentration index (FIC) testing was performed to measure interactions between mupirocin and neomycin, as previously described. See Odds F C. 2003. Synergy, antagonism, and what the chequerboard puts between them. The Journal of antimicrobial chemotherapy 52:1. Briefly, in checkerboard format each row of the plate contained increasing concentrations of mupirocin (2-fold increments; 0-0.5 μg/mL), whereas each column contained increasing concentrations of neomycin (2-fold increments; 0-32 μg/mL). To every well (100 μl total volume) MHB containing 3×10^5 CFU of S. aureus strain UAMS-1 was added and the plate was incubated at 37° C. overnight (16-20 hr). The FIC was determined using the following formula: (MIC of Drug A in Combination/MIC of Drug A Alone)+(MIC of Drug B in Combination/MIC of Drug B Alone)=FIC. A synergistic interaction was defined as an FIC value≤0.5, additive as FIC value 0.5-1.0, no interaction as an FIC of 1-4, or an antagonistic interaction FIC>4.
# Members of the Selleck library of 853 FDA approved drugs were screened for agents that potentiate the activity of mupirocin. […] Conversely, the antimicrobial activity of Nitazoxanide, Nitrofurazone, and Neomycin sulfate, increased in the presence of mupirocin.
# USA300 = experiment: MIC testing; type: cell-based, Staphylococcus aureus; conditions: USA300, data not shown
# Method: as §1
# S. aureus strain UAMS-1 [2] = experiment: Fractional inhibitory concentration index (FIC) checkerboard testing with mupirocin; type: cell-based, Staphylococcus aureus; conditions: combined with mupirocin, additive = 0.5-1.0
# Method: as §2
# S. aureus RNase P = experiment: RNase P ptRNA processing assay; type: biochemical, Staphylococcus aureus; conditions: 250 μM, in vitro
# Method: RNase P ptRNA Processing Assay. S. aureus RNase P activity assays were performed as previously described. See Eidem T M, Lounsbury N, Emery J F, Bulger J, Smith A, Abou-Gharbia M, Childers W, Dunman P M. 2015. Small-molecule inhibitors of Staphylococcus aureus RnpA-mediated RNA turnover and tRNA processing. Antimicrob Agents Chemother 59:2016-2028. Briefly, RNase P was first reconstituted by mixing an equimolar ratio of denatured rnpB and RnpA for 15 min at 37° C. then added (5 pmol) to 10 pmol of ptRNA^Tyr, and increasing concentrations of the indicated concentration of neomycin or the known RNase P inhibitor, RNPA2000 in a total volume of 20 μl. […] A FluorChem 5500 imaging system was used to visualize RNA products and quantified using ImageJ software (National Institutes of Health, Bethesda Md.). The percent RNase P activity was then calculated using the following equation: test compound tRNA^Tyr signal/mock tRNA^Tyr signal.
# Aminoglycoside antibiotics, such has neomycin, contain a central deoxystreptamine ring decorated with amino-sugar modifications and act by binding to the major groove of the 16S rRNA to disrupt the fidelity of tRNA selection and block protein translation. […] A real-time fluorescence polarization activity assay to screen for inhibitors of bacterial ribonuclease P. Nucleic acids research 42:e159.
# S. aureus strain UAMS-1 [3] = experiment: Murine dermal wound model of infection; type: in vivo, Staphylococcus aureus
# Method: Dermal Wound Model of Infection and Treatment of Mice. The effects of ointment compilations were evaluated for in vivo antimicrobial activity using a S. aureus dermal wound model, but with modifications. See Guthrie K M, Agarwal A, Tackes D S, Johnson K W, Abbott N L, Murphy C J, Czuprynski C J, Kierski P R, Schurr M J, McAnulty J F. 2012. Antibacterial efficacy of silver-impregnated polyelectrolyte multilayers immobilized on a biological dressing in a murine wound infection model. Annals of surgery 256:371-377. Mice were anesthetized by intraperitoneal injection with a mixture of 100 mg ml^−1 Ketamine (Hospira Inc., Lake Forest Ill.) and 20 mg ml^−1 Xylazine (Lloyd Laboratories, Shenandoah Iowa) in NaCl at five μ1 per 1 g body weight. Pain relief in the form of 20 μL 0.5% Sensorcaine (APP Pharmaceuticals, Schaumburg, Ill.) was administered prior to dermal wounding. […]
# To do so, a dermal wound was created on the back of Balb-c mice, inoculated with either S. aureus strain UAMS-1, USA300, or BAA-1708, and then treated with test agent suspended in PEG-based ointment twice a day for a total of 3 days, at which point bacterial burden was measured.
# S. aureus strain UAMS-1 [4] = type: in vivo, Staphylococcus aureus; conditions: Balb-c mice
# Method: Nasal Colonization and Treatment of Mice. Ointments were evaluated for in vivo antimicrobial activity using a S. aureus nasal colonization model as previously described, but with modifications. See Kiser K B, Cantey-Kiser J M, Lee J C. 1999. Development and characterization of a Staphylococcus aureus nasal colonization model in mice. Infect Immun 67:5001-5006. The nostrils of awake mice were inoculated with 1×10^7 of the indicated S. aureus strain by pipetting 10 μL of culture directly into the nostrils and confirmed by the visualization of air bubbles appearing as the mouse breathed in and out. Mice nostrils were then treated with 10 μL PEG ointment (brought to 55° C. in a heat block to liquefy) containing either vehicle alone or the indicated antibiotic 45 min post inoculation and treatments were repeated every 8 hr for three days. […]
# A murine model of S. aureus nasal colonization was used to compare the antimicrobial efficacy of mupirocin, neomycin, and the two agents when applied in combination. To do so, the nasal passage of Balb-c mice were inoculated with ˜1×10^7 colony forming units of S. aureus then treated three times a day for a total of three days, at which point the bacterial burden was measured and the antibiotic susceptibility of ten isolates from each animal was measured by MIC testing.
# S. aureus strain UAMS-1 [5] = conditions: previous studies; cited from earlier work
# [6] = UAMS1, medium containing 0.25× the strain's mupirocin MIC, UAMS-1, read-out: MIC (+) Mup.
# [7] = UAMS1, read-out: MIC (−) Mup., medium lacking mupirocin, UAMS-1
molecule,measurement,setting,value
C/C(=C\C(=O)OCCCCCCCCC(=O)O)C[C@@H]1OC[C@H](C[C@@H]2O[C@H]2[C@@H](C)[C@H](C)O)[C@@H](O)[C@H]1O [mupirocin],MIC,strain BAA-1708,> 256 mg/L
same,MIC,"S. aureus strain UAMS-1 [1]; UAMS1, UAMS-1 isolates from two 2% mupirocin treated mice with higher nasal burdens",0.5 mg/L
same,MIC,"S. aureus strain UAMS-1 [1]; UAMS1, inoculating strain UAMS-1 and isolates from the other animals of the 2% mupirocin nasal treatment group",0.125 mg/L
same,MIC,"S. aureus strain UAMS-1 [1]; UAMS1, read-out: mupirocin minimum inhibitory concentration (MIC), UAMS-1, as stated for the library screen",0.3 mg/L
same,increase in mupirocin tolerance,S. aureus strain UAMS-1 [1]; isolates from two higher-burden mice versus inoculating strain,4 fold
neomycin,MIC (+) Mup.,"S. aureus strain UAMS-1 [1]; medium containing 0.25× the strain's mupirocin MIC, UAMS-1",0.25 mg/L
same,MIC (−) Mup.,"S. aureus strain UAMS-1 [1]; medium lacking mupirocin, UAMS-1",0.5 mg/L
same,MIC,USA300,128 mg/L
same,Fractional Inhibitory Concentration Index,S. aureus strain UAMS-1 [2],0.75
same,inhibition of RNase P-catalyzed maturation of precursor tRNA^Tyr,S. aureus RNase P,inhibit
NC(=O)N/N=C/c1ccc([N+](=O)[O-])o1 [Nitrofurazone],MIC,S. aureus strain UAMS-1 [1]; [6],8 mg/L
same,MIC,S. aureus strain UAMS-1 [1]; [7],16 mg/L
same,Fractional Inhibitory Concentration Index,S. aureus strain UAMS-1 [2],0.75
CC(C)c1ccc(OCC(=O)NNC(=S)NC(=O)c2ccco2)cc1 [RNPA2000],wound decolonization (in words),S. aureus strain UAMS-1 [3],does not exhibit antimicrobial activity
same,nasal decolonization (in words),S. aureus strain UAMS-1 [4],does not exhibit antimicrobial activity
same,FIC measures with mupirocin,S. aureus strain UAMS-1 [5],< 0.5
CC(=O)Oc1ccccc1C(=O)Nc1ncc([N+](=O)[O-])s1 [Nitazoxanide],MIC,S. aureus strain UAMS-1 [1]; [6],8 mg/L
same,MIC,S. aureus strain UAMS-1 [1]; [7],16 mg/L
same,Fractional Inhibitory Concentration Index,S. aureus strain UAMS-1 [2],0.75
